Assay results: patent publication US9067928B2 (Genentech, Inc., priority 2008, dated 2015)

Tests used:
Bcl-xL = molecular target: T1, Bcl-xL (Homo sapiens, UniProt Q07817); assay: TR-FRET binding assay, competition with F-Bak for Bcl-xL binding site; conditions: GST-Bcl-xL, F-Bak probe
T1 construct: made in house
Description: The measurement of competition of compounds of the invention with F-Bak for a Bcl-2 family protein (Bcl-xL) binding site using a Time Resolved Fluorescence Resonance Energy Transfer (TR-FRET) Binding Assay:
Test compounds were serially diluted in DMSO starting at 50 μM (2× starting concentration; 10% DMSO) and 10 μL transferred into a 384-well plate.
The samples are then mixed on a shaker for 1 minute then incubated for an additional 2 hours at room temperature. For each assay plate, a probe/antibody and protein/antibody/probe mixture were included as a negative and a positive control, respectively. Fluorescence was measured on the Envision (Perkin Elmer) using a 340/35 nm excitation filter and 520/525 (F-Bak) and 495/510 nm (Tb-labeled anti-his antibody) emission filters. Dissociation constants (Ki) were determined using Wang's equation (see, Wang, Z. X. An exact mathematical expression for describing competitive binding of two different ligands to a protein molecule. FEBS Lett. 1995 360:111-114). The TR-FRET assay can be performed in the presence of varying concentrations of human serum (HS) or fetal bovine serum (FBS).

[1] = tested on: Mcl-1-/- mouse embryonic fibroblasts (MEF); assay: Cell viability assay for Mcl-1-/- mouse embryonic fibroblasts (CellTiter-Glo); format: cell-based; conditions: Fibroblast, 1% Fetal Bovine Serum, read-out: MEF Mcl-1-/- KO cell viability results (EC50)
Text: a. Cell Viability Assay for Mcl-1^−/− Mouse Embryonic Fibroblasts (MEF):
Neutralization of both […] and Mcl-1 anti-apoptotic proteins in normal cells is required before a cell undergoes apoptosis via the downstream Bax/Bak pathway See, Chen. L. et al. Mol. Cell (2005) 17, 393-403; Willis, S. N. et al. Genes Dev. (2005) 19, 1294-1305. A compound that only targets Bcl-xL should not affect normal cells, but could kill certain cancer cells if they rely more on Bcl-xL and less on other anti-apoptotic proteins, e.g. Mcl-1, for survival. To mirror this, compounds of the invention were tested for its effect on survival of wild type (wt) mouse embryo fibroblasts (MEFs), Bax/Bak double knockout (BB DKO) MEFs, MEFs that expressed Noxa, and MEFs that expressed Bad. Noxa specifically neutralizes Mcl-1. […] MEFs that express Noxa mirror cancer cell types that are reliant on Bcl-xL for survival and should be much more sensitive to killing by a Bcl-xL targeting compound than MEFs where both Bcl-xL and Mcl-1 are protective.
In this assay, Mcl-1^(−/−) cells were used to confirm that cell apoptosis in the presence of BH3 mimetic small molecules was due to predominantly Bcl-xL inactivation. This inactivation leaves Bax/Bak unconstrained and results in apoptosis. The […]-GLO Luminescent Cell Viability Assay is a homogeneous method of determining the number of viable cells in culture based on quantitation of the ATP present. The amount of ATP correlates with the presence of metabolically active cells such that following cell lysis the amount of ATP present is proportional to the amount of luminescence measured.
Mcl-1^(−/−) mouse embryonic fibroblasts (MEFs) are an adherent cell line prepared in house. MEFs were grown in Iwaki 75 cm^2 tissue culture flasks (cat #3123-075) with FMA media which consists of: • 89% DME Kelso • 10% heat-inactivated foetal calf serum (FCS) (Hyclone cat #SH30396.03) • 1% 10 mM asparagine (Fluka cat #11149) • 275 μl of a 1:2000 dilution of 2-mercaptoethanol is added to the final 500 ml volume of FMA (Sigma cat #M7522; diluted in MT-PBS)
FMA was stored at 4° C. and used at 37° C. MEFs were cultured in FMA media and harvested in MT-PBS and trypsin. For MEF cell viability assays, cells were seeded separately in plates with 10% FCS-FMA and 1% FCS-FMA. […]
Automated Systems that can be used in this assay include: 1) Multidrop—The MULTIDROP 384 (ThermoLabsystems) dispenser was used to dispense cells aseptically into the assay plates: 2) MiniTrak—The […] system from Perkin Elmer was used for titration of the compound plates; 3) Zymark—The ZYMARK SCICLONE ALH3000 System with 100 nL pintool head was used for compound addition to the cells; 4) EnVision—The ENVISION plate reader was used to measure the viability via the detection of the luminescence. […]

T1 sequence (Q07817 whole entry, species assumed): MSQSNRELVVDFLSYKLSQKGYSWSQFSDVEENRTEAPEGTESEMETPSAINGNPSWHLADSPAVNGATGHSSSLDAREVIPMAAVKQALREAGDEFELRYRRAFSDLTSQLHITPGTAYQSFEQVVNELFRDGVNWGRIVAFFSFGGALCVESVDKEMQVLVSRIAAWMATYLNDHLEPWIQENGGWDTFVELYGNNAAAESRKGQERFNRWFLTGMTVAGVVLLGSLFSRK

Question: How did the Ki (Bcl-xL) turn out when `O=C(O)c1nc(-c2ccc3c(c2)N(C(=O)Nc2nc4ccccc4s2)CCC3)sc1-c1ccc(-c2ccccc2)cc1` [Example 92, 2-(1-(benzo[d]thiazol-2-ylcarbamoyl)-1,2,3,4-tetrahydroquinolin-7-yl)-5-(biphenyl-4-yl)thiazole-4-carboxylic acid] was run?
Answer: 0.5 nM

Question: And the EC50 [1]?
Answer: 150 nM
